These results are taken from US20250206708A1, “AN OXAZIRIDINE PLATFORM FOR TARGETING FUNCTIONAL ALLOSTERIC METHIONINE SITES” (Novartis AG, priority 2022, published 2025).

For one test, the target named is CDK4 (Homo sapiens, UniProt P11802). Description: Shotgun proteomics (MS/MS) site of modification on CDK4. The class given is binding. Particulars: 50 μM oxaziridine, 30 min, 23° C. On the procedure: To more accurately assess residue reactivity of oxaziridines on CDK4, 10 μg of CDK4 was diluted with 90 μg whole cell extract derived from mouse liver to a total volume of 100 μL in PBS. Protein mixture was treated with 50 μM oxaziridine (DMSO) and allowed to incubate at 23° C. for 30 min. Labeled protein was precipitated via addition of 900 μL MeOH at −80° C. overnight. The next day, sample was spun at max speed at 4° C. for 10 min. The pellet was gently washed 3 times with a solution of ice cold MeOH. The supernatant was then removed, and the pellet resuspended in 30 μL freshly prepared 8 M urea/PBS. A 5× stock of ProteaseMAX (Promega; cat no. V2071) was prepared by dissolved the pellet in 100 μL ammonium bicarbonate. To the protein mixture was added 30 μL 1×ProteaseMAX, 40 μL ammonium bicarbonate, and 10 μL of 110 mM freshly prepared TCEP (Pierce; cat no. 20490). […]
Chain of CDK4 (P11802 whole entry): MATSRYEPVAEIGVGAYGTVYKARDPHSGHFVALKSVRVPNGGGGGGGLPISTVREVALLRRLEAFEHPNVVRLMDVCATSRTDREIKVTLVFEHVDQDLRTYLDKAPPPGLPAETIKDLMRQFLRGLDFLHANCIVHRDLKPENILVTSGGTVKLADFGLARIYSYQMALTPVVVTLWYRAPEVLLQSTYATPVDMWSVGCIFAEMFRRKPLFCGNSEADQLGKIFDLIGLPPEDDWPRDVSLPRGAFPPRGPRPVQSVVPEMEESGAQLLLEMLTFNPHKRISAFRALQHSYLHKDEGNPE
Chain of CDK4 (P24385 whole entry partner): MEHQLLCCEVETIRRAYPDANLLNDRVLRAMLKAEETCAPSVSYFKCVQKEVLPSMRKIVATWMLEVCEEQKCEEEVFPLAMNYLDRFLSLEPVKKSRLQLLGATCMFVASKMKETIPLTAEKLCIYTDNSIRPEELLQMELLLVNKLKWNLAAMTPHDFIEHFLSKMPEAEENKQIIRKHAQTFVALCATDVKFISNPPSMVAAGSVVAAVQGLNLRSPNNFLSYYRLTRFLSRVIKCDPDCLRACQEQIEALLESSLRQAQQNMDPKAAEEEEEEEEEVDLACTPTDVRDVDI
Peptides from all experiments were analyzed on a Q Exactive Plus mass spectrometer (Thermo Fisher Scientific); pure proteins were analyzed on a C18 only column, while complex proteomes were analyzed via a five step Multidimensional Protein Identification Technology (MudPIT).^7 In both cases, Inlines (IDEX; cat no.M-520) were fitted with ˜20 cm of 250 μm tubing and prepacked with 4 cm of Aqua C18 reverse-phase resin (Phenomenex; cat no. 04A-4299). […]
Data were analyzed with Byologic (Protein Metrics Inc.). […]

The next test concerns MCF-7 cells. Description: Cell Counting Kit-8 cell viability assay in MCF-7. The class given is cell-based. Particulars: Homo sapiens, MCF7; 24 h, CCK-8; read-out: EC50, decrease in cell viability of MCF-7 cells. How it is done: All cells were maintained as a monolayer in exponential growth at 37° C. in a 5% CO2 atmosphere. MCF-7 and HepG2 were maintained in Dulbecco's Modified Eagle Medium (DMEM, Gibco) supplemented with 10% (v/v) fetal bovine serum (FBS, Seradigm). HT-29 and SW-48 were maintained in RPMI 1640 Medium (Gibco) supplemented with 10% FBS.
All cells dosed with oxaziridine were treated using a 2% DMSO/media solution. Oxaziridines were dissolved in DMSO and used the same day as treatment. Media was removed from cells and replaced with fresh media containing oxaziridine in DMSO for a final concentration of 2% DMSO. Control wells were treated with 2% DMSO/media. Cells were incubated at 37° C. in a 5% CO2 atmosphere.
Commercially available Cell Counting Kit-8 Assay (Dojindo) was used to investigate cell viability after treatment with oxaziridines. Cells were plated in 96-well plates (black/clear bottom; Thermo Fisher) and grown to 75% confluency. Media was removed and replaced with media containing 2% DMSO and indicated compound concentration. Cells were allowed to incubate 24 h. To assess viability, media was removed and replaced with 100 μL media containing 10% CCK-8 assay solution. Plates were incubated at 37° C. in a 5% CO2 atmosphere for 1-4 h until an orange color was visible. Viability was quantified via plate reader (monofilter) with absorption at 450 nm.
In general terms: Tetrazolium dyes change colour on reduction, which living cells bring about.

The target of a further test is CDK1 (Homo sapiens, UniProt P06493). Description: Shotgun proteomics (MS/MS) modification of purified CDK1. The class given is binding. Particulars: shotgun proteomics on purified protein.
Chain of CDK1 (P06493 whole entry): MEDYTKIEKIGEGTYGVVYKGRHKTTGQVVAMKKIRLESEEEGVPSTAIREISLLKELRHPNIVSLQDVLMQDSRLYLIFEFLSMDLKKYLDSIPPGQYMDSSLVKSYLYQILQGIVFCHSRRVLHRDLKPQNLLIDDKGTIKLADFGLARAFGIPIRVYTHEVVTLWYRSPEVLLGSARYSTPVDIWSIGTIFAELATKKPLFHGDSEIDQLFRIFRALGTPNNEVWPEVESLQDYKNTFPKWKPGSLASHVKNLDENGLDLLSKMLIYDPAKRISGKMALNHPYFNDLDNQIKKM

Take `O=C(N1CC2COCC2C1)N1OC1c1ccccc1` (stereo not drawn) [Compound 148]: at CDK4, the “site(s) of modification on CDK4” value was “M169, with minor labeling at M264”. The 50% effective concentration (EC50) in the test with MCF-7 cells is 330 µM. The “modifications on CDK1” value on CDK1 is reported as “No modifications”.

By EC50 is commonly meant the concentration at which the effect is half-maximal.
